Here are results for 21 molecules from patent US10745382B2 (BRISTOL-MYERS SQUIBB COMPANY, priority 2015, dated 2020).

Structures can show the parent of a compound that is named as a salt.

T1 sequence (Q9NZQ7 with tags, fused parts or gaps): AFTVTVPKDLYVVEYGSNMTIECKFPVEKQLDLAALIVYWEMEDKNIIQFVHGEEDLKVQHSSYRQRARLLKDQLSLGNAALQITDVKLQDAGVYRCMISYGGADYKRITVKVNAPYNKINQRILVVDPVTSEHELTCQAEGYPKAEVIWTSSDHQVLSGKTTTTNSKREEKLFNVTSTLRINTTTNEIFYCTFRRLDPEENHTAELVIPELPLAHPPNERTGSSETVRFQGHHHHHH

One assay addresses T1, PD-1/PD-L1 (Homo sapiens, UniProt Q9NZQ7).
T1 construct: made in house; host or cells: HEK293T
Kind of assay: PD-1/PD-L1 Homogenous Time-Resolved Fluorescence (HTRF) binding assay. Particulars: PD-L1-His 10 nM, PD-1-Ig 20 nM; numeric IC50; read-out: Range or IC50. The method in brief:
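Binding was measured by HTRF in dPBS with 0.1% BSA and 0.05% Tween-20. Detection used europium cryptate anti-Ig (1 nM final) and APC anti-His (20 nM final) added over the binding reaction.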
Consider `Cc1c(COc2cc(OCc3cncc(C#N)c3)c(CN[C@@H](CO)C(=O)O)cc2Cl)cccc1-c1ccc2c(c1C)OCCO2` [Example 3043, (2S)-2-((5-chloro-2-((5-cyanopyridin-3-yl)methoxy)-4-((2-methyl-3-(5-methyl-2,3-dihydrobenzo[b][1,4]dioxin-6-yl)benzyl)oxy)benzyl)amino)-3-hydroxypropanoic Acid], for which the IC50 is 3 nM.

The same assay, now with this note: PD-L1-His 10 nM, PD-1-Ig 20 nM; value given as range class; read-out: Range or IC50.
Take `Cc1c(COc2cc(OCc3cncc(C#N)c3)c(CN3CCCC[C@H]3C(=O)O)cc2Cl)cccc1-c1cccc(OCCCN2CCC(O)(c3ccccc3)C2)c1C` (stereo partly drawn) [Example 3040, (2S)-1-(5-chloro-2-((5-cyanopyridin-3-yl)methoxy)-4-((3′-(3-(3-hydroxy-3-phenylpyrrolidin-1-yl)propoxy)-2,2′-dimethyl-[1,1′-biphenyl]-3-yl)methoxy)benzyl)piperidine-2-carboxylic Acid]: the IC50 was 0.21 to 10 nM.
As to `Cc1c(COc2cc(OCc3cncc(C#N)c3)c(CN[C@@](C)(CO)C(=O)O)cc2Cl)cccc1-c1ccc2c(c1C)OCCO2` [Example 3041, (2S)-2-((5-chloro-2-((5-cyanopyridin-3-yl)methoxy)-4-((2-methyl-3-(5-methyl-2,3-dihydrobenzo[b][1,4]dioxin-6-yl)benzyl)oxy)benzyl)amino)-3-hydroxy-2-methylpropanoic Acid], the IC50 is 0.21 to 10 nM.
For `Cc1c(COc2cc(OCc3cncc(C#N)c3)c(CN[C@](C)(CO)C(=O)O)cc2Cl)cccc1-c1ccc2c(c1C)OCCO2` [Example 3042, (2R)-2-((5-chloro-2-((5-cyanopyridin-3-yl)methoxy)-4-((2-methyl-3-(5-methyl-2,3-dihydrobenzo[b][1,4]dioxin-6-yl)benzyl)oxy)benzyl)amino)-3-hydroxy-2-methylpropanoic Acid], the 50% inhibitory concentration (IC50) lay in the range of 0.21 to 10 nM.
As for `Cc1c(COc2cc(OCc3cncc(C#N)c3)c(CN3CCCC[C@H]3C(=O)O)cc2Cl)cccc1-c1ccc2c(c1C)OCCO2` [Example 3044, (2S)-1-(5-chloro-2-((5-cyanopyridin-3-yl)methoxy)-4-((2-methyl-3-(5-methyl-2,3-dihydrobenzo[b][1,4]dioxin-6-yl)benzyl)oxy)benzyl)piperidine-2-carboxylic Acid], the IC50 was 0.21 to 10 nM.
Same read-out and setting: next, `Cc1c(COc2cc(OCc3cncc(C#N)c3)c(CN[C@](C)(CO)C(=O)O)cc2Cl)cccc1-c1cc(C#Cc2ccccc2)cc(OCCCN2CC[C@@H](O)C2)c1` [Example 3045, (R)-2-((5-chloro-2-((5-cyanopyridin-3-yl)methoxy)-4-((3′-(3-((R)-3-hydroxypyrrolidin-1-yl)propoxy)-2-methyl-5′-(phenylethynyl)-[1,1′-biphenyl]-3-yl)methoxy)benzyl)amino)-3-hydroxy-2-methylpropanoic Acid]: 2010 to 10000 nM.
With `Cc1c(COc2cc(OCc3cncc(C#N)c3)c(CN3CCCC[C@H]3C(=O)O)cc2Cl)cccc1-c1cccc(OCCCN2C[C@H]3CC[C@@H](C2)O3)c1C` [Example 3046, (S)-1-(4-((3′-(3-((1R,5S)-8-oxa-3-azabicyclo[3.2.1]octan-3-yl)propoxy)-2,2′-dimethyl-[1,1′-biphenyl]-3-yl)methoxy)-5-chloro-2-((5-cyanopyridin-3-yl)methoxy)benzyl)piperidine-2-carboxylic Acid], the half-maximal inhibitory concentration (IC50) lay in the range of 0.21 to 10 nM.
In the case of `Cc1c(COc2cc(OCc3cncc(C#N)c3)c(CN3CCCC[C@H]3C(=O)O)cc2Cl)cccc1-c1cccc(OCCCN2CCO[C@@H](CO)C2)c1C` [Example 3047, (S)-1-(5-chloro-2-((5-cyanopyridin-3-yl)methoxy)-4-((3′-(3-((R)-2-(hydroxymethyl)morpholino)propoxy)-2,2′-dimethyl-[1,1′-biphenyl]-3-yl)methoxy)benzyl)piperidine-2-carboxylic Acid], the IC50 lay in the range of 0.21 to 10 nM.
On the same count and under the same terms, next, `Cc1c(COc2cc(OCc3cncc(C#N)c3)c(CN3CCCC[C@H]3C(=O)O)cc2Cl)cccc1-c1cccc(OCCCN2[C@@H]3CC[C@H]2CC(O)C3)c1C` (stereo partly drawn) [Example 3048, (2S)-1-(5-chloro-2-((5-cyanopyridin-3-yl)methoxy)-4-((3′-(3-((1R,5S)-3-hydroxy-8-azabicyclo[3.2.1]octan-8-yl)propoxy)-2,2′-dimethyl-[1,1′-biphenyl]-3-yl)methoxy)benzyl)piperidine-2-carboxylic Acid]: 0.21 to 10 nM.
The same measure, in the same setting: next, `Cc1c(COc2cc(OCc3cncc(C#N)c3)c(CN3CCCC[C@H]3C(=O)O)cc2Cl)cccc1-c1cccc(OCCCN2C[C@@H](C)O[C@@H](C)C2)c1C` [Example 3049, (S)-1-(5-chloro-2-((5-cyanopyridin-3-yl)methoxy)-4-((3′-(3-((2S,6R)-2,6-dimethylmorpholino)propoxy)-2,2′-dimethyl-[1,1′-biphenyl]-3-yl)methoxy)benzyl)piperidine-2-carboxylic Acid]: 0.21 to 10 nM; `Cc1c(COc2cc(OCc3cncc(C#N)c3)c(CN3CCCC[C@H]3C(=O)O)cc2Cl)cccc1-c1cccc(OCCCN2CCOCC2CO)c1C` (stereo partly drawn) [Example 3050, (2S)-1-(5-chloro-2-((5-cyanopyridin-3-yl)methoxy)-4-((3′-(3-(3-(hydroxymethyl)morpholino)propoxy)-2,2′-dimethyl-[1,1′-biphenyl]-3-yl)methoxy)benzyl)piperidine-2-carboxylic Acid]: 0.21 to 10 nM; `Cc1c(COc2cc(OCc3cncc(C#N)c3)c(CN3CCCC[C@H]3C(=O)O)cc2Cl)cccc1-c1cccc(OCCCN2[C@@H]3CC[C@H]2COC3)c1C` [Example 3051, (S)-1-(4-((3′-(3-((1R,5S)-3-oxa-8-azabicyclo[3.2.1]octan-8-yl)propoxy)-2,2′-dimethyl-[1,1′-biphenyl]-3-yl)methoxy)-5-chloro-2-((5-cyanopyridin-3-yl)methoxy)benzyl)piperidine-2-carboxylic Acid]: 0.21 to 10 nM.
Take `Cc1c(COc2cc(OCc3cncc(C#N)c3)c(CN3CCCC[C@H]3C(=O)O)cc2Cl)cccc1-c1cccc(OCCCN2C3COCC2COC3)c1C` [Example 3052, (S)-1-(4-((3′-(3-((1s,5s)-3,7-dioxa-9-azabicyclo[3.3.1]nonan-9-yl)propoxy)-2,2′-dimethyl-[1,1′-biphenyl]-3-yl)methoxy)-5-chloro-2-((5-cyanopyridin-3-yl)methoxy)benzyl)piperidine-2-carboxylic Acid]: the 50% inhibitory concentration (IC50) lay within 0.21 to 10 nM.
Still for that read-out and setting: next, `COC(=O)[C@@H]1CCCCN1Cc1cc(Cl)c(OCc2cccc(-c3cccc(OCCCN4CCOCC4)c3C)c2C)cc1OCc1cccc(C#N)c1` [Example 3053, (S)-methyl 1-(5-chloro-2-((3-cyanobenzyl)oxy)-4-((2,2′-dimethyl-3′-(3-morpholinopropoxy)-[1,1′-biphenyl]-3-yl)methoxy)benzyl)piperidine-2-carboxylate, 2 TFA]: 100 to 2000 nM; `Cc1c(COc2cc(OCc3cccc(C#N)c3)c(CN3CCCC[C@H]3C(=O)O)cc2Cl)cccc1-c1cccc(OCCCN2[C@@H]3CC[C@H]2COC3)c1C` [Example 3055, (S)-1-(4-((3′-(3-((1R,5S)-3-oxa-8-azabicyclo[3.2.1]octan-8-yl)propoxy)-2,2′-dimethyl-[1,1′-biphenyl]-3-yl)methoxy)-5-chloro-2-((3-cyanobenzyl)oxy)benzyl)piperidine-2-carboxylic Acid]: 0.21 to 10 nM.
On to `Cc1c(COc2cc(OCc3cncc(C#N)c3)c(CN3CCCC[C@H]3C(=O)O)cc2Cl)cccc1-c1cccc(OCCCN2CCOC(c3ccccc3)C2)c1C` (stereo partly drawn) [Example 3056, (2S)-1-(5-chloro-2-((5-cyanopyridin-3-yl)methoxy)-4-((2,2′-dimethyl-3′-(3-(2-phenylmorpholino)propoxy)-[1,1′-biphenyl]-3-yl)methoxy)benzyl)piperidine-2-carboxylic Acid], for which the IC50 was 0.21 to 10 nM.
As to `Cc1c(COc2cc(OCc3cncc(C#N)c3)c(CN3CCCC[C@H]3C(=O)O)cc2Cl)cccc1-c1cccc(OCCCN2CC[C@@H](F)C2)c1C` [Example 3057, (S)-1-(5-chloro-2-((5-cyanopyridin-3-yl)methoxy)-4-((3′-(3-((R)-3-fluoropyrrolidin-1-yl)propoxy)-2,2′-dimethyl-[1,1′-biphenyl]-3-yl)methoxy)benzyl)piperidine-2-carboxylic Acid], the IC50 was 0.21 to 10 nM.
With `Cc1c(COc2cc(OCc3cncc(C#N)c3)c(CN3CCCC[C@H]3C(=O)O)cc2Cl)cccc1-c1cccc(OCCCN2CCOC(C(F)(F)F)C2)c1C` (stereo partly drawn) [Example 3058, (2S)-1-(5-chloro-2-((5-cyanopyridin-3-yl)methoxy)-4-((2,2′-dimethyl-3′-(3-(2-(trifluoromethyl)morpholino)propoxy)-[1,1′-biphenyl]-3-yl)methoxy)benzyl)piperidine-2-carboxylic Acid], the IC50 is 0.21 to 10 nM.
Turning to `Cc1c(COc2cc(OCc3cncc(C#N)c3)c(CN3CCCC[C@H]3C(=O)O)cc2Cl)cccc1-c1cccc(C(=O)N2CCN(C)CC2)c1C` [Example 3059, (S)-1-(5-chloro-2-((5-cyanopyridin-3-yl)methoxy)-4-((2,2′-dimethyl-3′-(4-methylpiperazine-1-carbonyl)-[1,1′-biphenyl]-3-yl)methoxy)benzyl)piperidine-2-carboxylic Acid], the concentration for half-maximal inhibition (IC50) lay within 100 to 2000 nM.
Turning to `Cc1c(COc2cc(OCc3cncc(C#N)c3)c(CN3CCCC[C@H]3C(=O)O)cc2Cl)cccc1-c1cccc(C(=O)NCCN2CC[C@@H](O)C2)c1C` [Example 3060, (S)-1-(5-chloro-2-((5-cyanopyridin-3-yl)methoxy)-4-((3′-((2-((R)-3-hydroxypyrrolidin-1-yl)ethyl)carbamoyl)-2,2′-dimethyl-[1,1′-biphenyl]-3-yl)methoxy)benzyl)piperidine-2-carboxylic Acid], the IC50 lay within 10 to 100 nM.
On the same count and under the same terms, next, `Cc1c(COc2cc(OCc3cncc(C#N)c3)c(CNCCCN(C)C)cc2Cl)cccc1-c1cccc(CNCCCN(C)C)c1` [Example 3062, 5-((4-chloro-2-(((3-(dimethylamino)propyl)amino)methyl)-5-((3′-(((3-(dimethylamino)propyl)amino)methyl)-2-methyl-[1,1′-biphenyl]-3-yl)methoxy)phenoxy)methyl)nicotinonitrile]: 100 to 2000 nM.
